We go through six compounds from BindingDB's records for doi:10.1021/acs.jmedchem.6b01300 (Invivogen, 2016).

Test [1] addresses T1, Stimulator of interferon genes protein (Homo sapiens, UniProt Q86WV6). In words: Activation of STING in human THP-1-Dual cells assessed as induction of type I IFNs by measuring stimulation of IRF pathway incubated for 48 hrs by luciferase reporter gene assay. A general note: A reporter such as luciferase makes a cellular process visible.
In test [2] the target is T1, Stimulator of interferon genes protein. Nature of the test: Activation of STING in human THP-1-Dual cells assessed as induction of type I IFNs by measuring stimulation of NF-kappaB pathway incubated for 48 hrs by luciferase reporter gene assay.

T1 sequence (Q86WV6 whole entry): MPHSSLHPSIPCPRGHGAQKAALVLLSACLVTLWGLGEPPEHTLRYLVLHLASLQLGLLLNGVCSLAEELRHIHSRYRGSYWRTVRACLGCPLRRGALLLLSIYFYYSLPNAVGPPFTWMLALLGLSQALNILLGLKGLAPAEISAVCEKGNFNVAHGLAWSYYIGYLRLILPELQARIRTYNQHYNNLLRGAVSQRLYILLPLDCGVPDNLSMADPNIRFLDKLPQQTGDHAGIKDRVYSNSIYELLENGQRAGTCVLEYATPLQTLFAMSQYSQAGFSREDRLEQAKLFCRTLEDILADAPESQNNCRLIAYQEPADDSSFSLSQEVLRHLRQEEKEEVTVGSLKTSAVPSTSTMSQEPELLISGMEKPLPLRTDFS

One may read the EC50 as the midpoint of the concentration-response curve. On to `Nc1ncnc2c1ncn2[C@@H]1O[C@@H]2COP(=O)(S)O[C@H]3[C@@H](O)[C@H](n4cnc5c(O)ncnc54)O[C@@H]3COP(=O)(S)O[C@H]2[C@H]1O` (stereo partly specified), for which the half-maximal effective concentration (EC50) is 1600 nM in test [1] and 7800 nM in test [2].
For `Nc1ncnc2c1ncn2[C@@H]1O[C@@H]2COP(=O)(O)O[C@H]3C[C@H](n4cnc5c(O)ncnc54)O[C@@H]3COP(=O)(O)O[C@H]2[C@H]1F`, in that order: 1400 nM and 25500 nM.
For `Nc1ncnc2c1ncn2[C@@H]1O[C@@H]2COP(=O)(S)O[C@H]3[C@@H](F)[C@H](n4cnc5c(O)ncnc54)O[C@@H]3COP(=O)(S)O[C@H]2[C@H]1F` (stereo partly specified), in that order: 300 nM and 1600 nM.
In the case of `Nc1ncnc2c1ncn2[C@H]1C[C@@H]2OP(=O)(O)OC[C@H]3O[C@@H](n4cnc5c(O)ncnc54)C[C@@H]3OP(=O)(O)OC[C@H]2O1`, the half-maximal effective concentration (EC50) in test [2] is 62300 nM.
For `Nc1ncnc2c1ncn2[C@H]1C[C@@H]2OP(=O)(O)OC[C@H]3O[C@@H](n4cnc5c(O)ncnc54)[C@H](F)[C@@H]3OP(=O)(O)OC[C@H]2O1`, the concentration giving a half-maximal response (EC50) in test [1] is 2300 nM; in test [2], 32300 nM.
For `Nc1ncnc2c1ncn2[C@@H]1O[C@@H]2COP(=O)(O)O[C@H]3[C@@H](F)[C@H](n4cnc5c(O)ncnc54)O[C@@H]3COP(=O)(O)O[C@H]2[C@H]1F`, in that order: 1100 nM and 15400 nM.
